Experimental findings from article PMC7536072, “Molecular and functional characterization of somatostatin-type signalling in a deuterostome invertebrate” (Open Biology, 2020) are described below.

For test [1], the system named is ArSSR1. The test can be described thus: GFP-aequorin luminescence receptor activation assay, CHO-K1 cells, ArSSR1 + Gα16. The class given is cell-based, Asterias rubens.
For test [2], the system named is ArSSR2. The test can be described thus: GFP-aequorin luminescence receptor activation assay, CHO-K1 cells, ArSSR2 + Gα16. The class given is cell-based, Asterias rubens.
Test [3] relates to ArSSR3. The test can be described thus: GFP-aequorin luminescence receptor activation assay, CHO-K1 cells, ArSSR3 + Gα16. Format: cell-based, Asterias rubens.
Sequence of ArSSR3 (as listed by the source): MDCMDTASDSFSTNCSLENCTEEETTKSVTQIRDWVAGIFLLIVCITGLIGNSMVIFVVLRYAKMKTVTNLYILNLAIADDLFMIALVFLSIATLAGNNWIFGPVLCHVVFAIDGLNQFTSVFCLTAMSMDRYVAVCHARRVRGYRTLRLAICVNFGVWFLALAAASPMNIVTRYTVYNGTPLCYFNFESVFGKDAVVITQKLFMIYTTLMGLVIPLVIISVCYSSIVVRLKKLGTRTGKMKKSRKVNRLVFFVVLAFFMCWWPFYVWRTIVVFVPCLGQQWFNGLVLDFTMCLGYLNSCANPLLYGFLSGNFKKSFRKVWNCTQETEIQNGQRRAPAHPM
The subject of test [4] is cardiac stomach preparations from A. rubens. The test can be described thus: in vitro relaxation of cardiac stomach preparations. More on the design: species or system Asterias rubens. How it is done: Synthetic ArSS2 ([…], with a disulfide bridge between the cysteine residues) was custom synthesized (Peptide Protein Research Ltd, Fareham, UK) to enable testing of its pharmacological effects on in vitro preparations of organs/muscles from A. rubens. ArSS2 was tested for its in vitro effects on the contractility of tube foot, apical muscle and cardiac stomach preparations from at least six different specimens of A. rubens. Individual tube foot preparations were dissected from starfish arms with their corresponding ampulla intact. Then cotton ligatures were tied around the ambulacral body wall and the tube foot disc and then the external epithelium of the tube foot was scraped off using a blunt scalpel blade to facilitate penetration of peptides when tested in vitro, as described previously. Apical muscle preparations were dissected from the aboral body wall with approximately 1 cm strips of apical muscle tied at each end with cotton ligatures. Cardiac stomach preparations were dissected as described previously and then were tied at the aboral side of the cardiac stomach and around the oesophagus with cotton ligatures. The dissected preparations were tied to a fixed metal hook orally and to a high-grade isotonic transducer (MLT0015; ADInstruments Ltd; Oxford, UK) aborally, suspended in a 20 ml aerated organ bath containing artificial seawater at approximately 11°C. The transducer was connected via a bridge amplifier (FE221 Bridge Amp, ADInstruments Ltd, Oxford, UK) to data acquisition hardware (PowerLab 2/36, ADInstruments Ltd, Oxford, UK). Data collected from PowerLab were visualized as traces and analysed using LabChart (v. 8.0.7) software installed on a laptop computer (Lenovo E540, Windows 7 Professional).
To examine the effects of ArSS2 on tube foot and cardiac stomach preparations, 10^−6 M acetylcholine (ACh) or artificial seawater (ASW) containing 30 mM added KCl was used to induce contraction of these preparations, respectively. Once a stable baseline contracted state was achieved, synthetic ArSS2 was added into the organ bath to sequentially achieve final concentrations in the range of 10^−10 to 10^−6 M. For these experiments, the contracting effect of 10^−6 M ACh or ASW containing 30 mM added KCl was defined as 100% and the relaxing effects of ArSS2 were then calculated as a percentage reversal of the 100% contracted state.
Experiments were performed where the effects of ArSS2, S2 and asterotocin (at 10^−7 and 10^−6 M) on cardiac stomach preparations (n = 6) were compared. For these experiments, the effect of 10^−7 or 10^−6 M S2 was defined as 100% and the effect of asterotocin or ArSS2 was calculated as a % of the effect of S2. To determine if there were significant differences in magnitude of the relaxing effects of the three peptides on cardiac stomach preparations, data were analysed statistically using a two-tailed Student's t-test in Prism 6.

For test [5], the system named is cardiac stomach of A. rubens. The test can be described thus: in vivo cardiac stomach eversion after injection into the perivisceral coelom. More on the design: species or system Asterias rubens. The note with it: n = 10. How it is done: When starfish (A. rubens) feed, the cardiac stomach is relaxed and everted out of the mouth over the digestible soft tissues of prey (e.g. mussels). […] Therefore, because ArSS2 causes relaxation of cardiac stomach preparations in vitro, we investigated if ArSS2 also triggers cardiac stomach eversion when injected in vivo. Firstly, 15 medium-sized starfish were starved for one week to normalize their physiological status. A Hamilton […] 50 μl syringe (Sigma-Aldrich; Gillingham, UK) was used to inject 10 μl 1 mM ArSS2, or 10 μl 1 mM asterotocin (positive control) or 10 μl water (negative control) into the […] coelom of starfish. ArSS2 was tested on five individuals firstly and then the next day, asterotocin was tested on the same batch of five individuals. For another five individuals, asterotocin was tested first and then ArSS2 was tested on the following day. The remaining five individuals were injected with water as a control. Thus, both ArSS2 and asterotocin were tested on ten starfish. For each starfish, the test agent was injected via two sites in the dorsal body wall of the arms proximal to the junctions with the central disc region. Care was taken to inject test agents into the […] coelom and not into the cardiac stomach.

Where [6] appears, read: 10^−7 M, KCl-contracted, mean, n = 6.
Where [7] appears, read: 10 µl 10^−3 M into perivisceral coelom.

Bridges are numbered along the chain shown (N, C = ends). Where no end group is shown, it is not given here.

As for “RAKNARCMADFWKGRGLVDC (disulfide 7-20 (inferred)) [ArSS2]”, the EC50 in test [1] (ArSSR1 + Gα16 in CHO-K1 cells expressing GFP-aequorin (G5A), peptide 10^−21 to 10^−4 M, luminescence over 35 s, mean of at least three independent experiments, three repeats each, read-out: half-maximal response concentration (EC50)) worked out at 0.088 nM; in test [2] (ArSSR2 + Gα16 in CHO-K1 cells expressing GFP-aequorin (G5A), peptide 10^−21 to 10^−4 M, luminescence over 35 s, mean of at least three independent experiments, three repeats each, read-out: half-maximal response concentration (EC50)), 0.0042 nM; in test [3] (ArSSR3 + Gα16 in CHO-K1 cells expressing GFP-aequorin (G5A), peptide 10^−21 to 10^−4 M, luminescence over 35 s, mean of at least three independent experiments, three repeats each, read-out: half-maximal response concentration (EC50)), 1.4 nM. Further, the “luminescence compared with control” value in test [1] (ArSSR1, 10^−5 M, vs BSA media (control) and, for ArSS2, vs ArSS1, one-way ANOVA, Bonferroni) was “significantly higher than the luminescence in cells exposed to ArSS1 or BSA media (control)”; in test [2] (ArSSR2, 10^−5 M, vs BSA media (control) and, for ArSS2, vs ArSS1, one-way ANOVA, Bonferroni), “significantly higher than the luminescence in cells exposed to ArSS1 or BSA media (control)”; in test [3] (ArSSR3, 10^−5 M, vs BSA media (control) and, for ArSS2, vs ArSS1, one-way ANOVA, Bonferroni) it was “significantly higher than the luminescence in cells exposed to ArSS1 or BSA media (control)”. Also, the triggering of luminescence entry is recorded as “caused dose-dependent luminescence” in test [1] (ArSSR1, 10^−21 to 10^−4 M); “caused dose-dependent luminescence” in test [2] (ArSSR2, 10^−21 to 10^−4 M); “caused dose-dependent luminescence” in test [3] (ArSSR3, 10^−21 to 10^−4 M). In addition, the “efficacy compared between receptors” value in test [1] (ArSSR1 and ArSSR2 vs ArSSR3, 10^−5 M) was “higher for ArSSR1 and ArSSR2 than for ArSSR3”. Further, the “mean total luminescence response relative to background” value in test [2] (ArSSR2, 10^−5 M, background detected with assay media or with ArSS1) is reported as 166 303 times the background luminescence; in test [3] (ArSSR3, 10^−5 M, background detected with assay media or with ArSS1) it was 46 575 times the background luminescence. Also, in test [4] (10^−6 M), the “extent of relaxation of cardiac stomach preparations” value is listed as “maximal relaxation”. In test [4] (10^−6 M, KCl-contracted, n = 6), the “magnitude of cardiac stomach relaxing action compared with S2” value is “not significantly different to the effect S2”. Besides, the “reversal of KCl-induced cardiac stomach contraction” value in test [4] (10^−6 M, contraction induced by 30 mM KCl = 100%, artificial seawater, approximately 11°C, mean ± s.e.m., n = 10) was determined as 60 ± 18%. The “magnitude of cardiac stomach relaxing action relative to S2” value in test [4] (setting [6]) is listed as 1.5 times the effect of S2. In addition, in test [4] (setting [6]), the “magnitude of cardiac stomach relaxing action relative to asterotocin” value is reported as 44 % of the effect of asterotocin. Besides, the “relaxing effect compared with S2” value in test [4] (10^−7 M, two-tailed Student's t-test p = 0.0303, n = 6) was “significantly larger than the effect of S2”. For the same sequence, in test [4] (pre-contracted with 30 mM KCl, tested 10^−10 to 10^−6 M), the “relaxation of cardiac stomach preparations” value is “dose-dependent relaxation of cardiac stomach preparations at concentrations between 10^−9 and 10^−6 M”. The “mean maximal eversion, area of everted cardiac stomach” value in test [5] (10 µl 10^−3 M into perivisceral coelom, 10 min recording) is recorded as “approximately 10 % of the area of the central disc region”. Besides, the “incidence of cardiac stomach eversion” value in test [5] (setting [7]) is listed as “all of the animals”. For the same sequence, the “time of mean maximal eversion after injection” value in test [5] (setting [7]) is reported as “approximately 4 min”. Further, the “magnitude of cardiac stomach eversion compared with asterotocin” value in test [5] (10 µl 10^−3 M) was “much less than that induced by asterotocin”.
